From US6355464B1, “M. tuberculosis RNA polymerase alpha subunit” (Anadys Pharmaceuticals, Inc., priority 1996, dated 2002)

Molecular target: M. tuberculosis RNA polymerase (Mycobacterium tuberculosis, UniProt P9WGY7+P9WGY9+P9WGZ1)
Assay: In vitro (cell-free) high-throughput transcription screen with reconstituted RNA polymerase and T101 promoter template
Format: biochemical
Details: rifampicin at 30 nM; control compound; TCA-precipitated [α-32P]-UTP-labelled RNA, 30 min at 25° C.
Experimental: High-throughput screens for anti-tuberculosis agents may be performed using either an in vitro or in vivo format. In either case, the ability of test compounds to inhibit M. tuberculosis RNA polymerase-driven transcription of M. tuberculosis promoters is tested. Typically, a strong promoter such as T101 is used for the test reactions. The sequence of the T101 promoter is: identified by SEQ. ID. NO. 15 and read as follows.
The following procedure is used for cell-free high-throughput screening. A Tomtec Quadra 96-well pipetting station is used to add the reaction components to polypropylene 96-well dishes. 5 μl aliquots of test compounds dissolved in DMSO (or DMSO alone as a control) are added to wells. This is followed by 20 μl of the RNA polymerase mixture, which consists of: 10 mM DTT, 200 mM KCl, 10 mM Mg^+2, 1.5 μM bovine serum albumin, and 0.25 μg reconstituted RNA polymerase. […]
After incubation for 30 min at 25° C., the reaction is stopped by addition of 150 μl 10% trichloroacetic acid (TCA). […] The wells of the microtiter plate and the filter are washed twice with 5% TCA and bound radioactivity is determined usinjg a Wallac microbeta 1450 scintillation counter. Inhibitory activity due to the test compound is calculated according to the formula: [formula] […]

Sequence of M. tuberculosis RNA polymerase (P9WGY7 whole entry, looked up): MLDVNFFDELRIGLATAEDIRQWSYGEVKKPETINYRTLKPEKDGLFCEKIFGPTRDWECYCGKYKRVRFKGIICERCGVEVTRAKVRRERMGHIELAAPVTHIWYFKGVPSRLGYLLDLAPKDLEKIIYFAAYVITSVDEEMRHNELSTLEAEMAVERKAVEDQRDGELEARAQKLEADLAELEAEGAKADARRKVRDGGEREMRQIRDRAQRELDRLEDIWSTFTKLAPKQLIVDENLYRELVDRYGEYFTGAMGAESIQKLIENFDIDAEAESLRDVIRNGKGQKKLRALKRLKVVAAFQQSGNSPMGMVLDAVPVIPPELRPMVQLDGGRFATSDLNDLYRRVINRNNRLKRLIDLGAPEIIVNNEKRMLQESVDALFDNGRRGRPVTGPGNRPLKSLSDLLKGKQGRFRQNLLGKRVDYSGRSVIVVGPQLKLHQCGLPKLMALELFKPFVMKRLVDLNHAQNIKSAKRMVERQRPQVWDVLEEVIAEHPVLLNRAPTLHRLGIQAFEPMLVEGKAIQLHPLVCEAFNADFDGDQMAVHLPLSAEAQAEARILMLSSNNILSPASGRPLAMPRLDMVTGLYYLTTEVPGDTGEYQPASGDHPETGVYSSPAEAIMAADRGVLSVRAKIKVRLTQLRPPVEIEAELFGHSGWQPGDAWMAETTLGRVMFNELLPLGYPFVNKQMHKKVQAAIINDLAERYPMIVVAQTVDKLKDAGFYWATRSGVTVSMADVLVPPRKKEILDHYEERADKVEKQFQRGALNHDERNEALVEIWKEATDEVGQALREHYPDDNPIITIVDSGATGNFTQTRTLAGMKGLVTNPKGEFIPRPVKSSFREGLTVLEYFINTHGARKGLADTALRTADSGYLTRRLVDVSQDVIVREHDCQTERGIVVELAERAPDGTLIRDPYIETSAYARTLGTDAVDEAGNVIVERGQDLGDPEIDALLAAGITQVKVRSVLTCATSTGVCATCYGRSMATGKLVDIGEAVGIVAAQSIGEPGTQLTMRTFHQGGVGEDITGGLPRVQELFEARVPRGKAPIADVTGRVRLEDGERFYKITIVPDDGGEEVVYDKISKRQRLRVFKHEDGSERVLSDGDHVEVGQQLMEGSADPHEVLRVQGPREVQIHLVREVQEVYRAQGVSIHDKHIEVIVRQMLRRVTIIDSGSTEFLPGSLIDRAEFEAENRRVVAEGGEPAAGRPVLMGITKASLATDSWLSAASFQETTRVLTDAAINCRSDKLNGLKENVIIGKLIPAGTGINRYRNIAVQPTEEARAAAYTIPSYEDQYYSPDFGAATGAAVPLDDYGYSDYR
Sequence of M. tuberculosis RNA polymerase (P9WGY9 whole entry, looked up): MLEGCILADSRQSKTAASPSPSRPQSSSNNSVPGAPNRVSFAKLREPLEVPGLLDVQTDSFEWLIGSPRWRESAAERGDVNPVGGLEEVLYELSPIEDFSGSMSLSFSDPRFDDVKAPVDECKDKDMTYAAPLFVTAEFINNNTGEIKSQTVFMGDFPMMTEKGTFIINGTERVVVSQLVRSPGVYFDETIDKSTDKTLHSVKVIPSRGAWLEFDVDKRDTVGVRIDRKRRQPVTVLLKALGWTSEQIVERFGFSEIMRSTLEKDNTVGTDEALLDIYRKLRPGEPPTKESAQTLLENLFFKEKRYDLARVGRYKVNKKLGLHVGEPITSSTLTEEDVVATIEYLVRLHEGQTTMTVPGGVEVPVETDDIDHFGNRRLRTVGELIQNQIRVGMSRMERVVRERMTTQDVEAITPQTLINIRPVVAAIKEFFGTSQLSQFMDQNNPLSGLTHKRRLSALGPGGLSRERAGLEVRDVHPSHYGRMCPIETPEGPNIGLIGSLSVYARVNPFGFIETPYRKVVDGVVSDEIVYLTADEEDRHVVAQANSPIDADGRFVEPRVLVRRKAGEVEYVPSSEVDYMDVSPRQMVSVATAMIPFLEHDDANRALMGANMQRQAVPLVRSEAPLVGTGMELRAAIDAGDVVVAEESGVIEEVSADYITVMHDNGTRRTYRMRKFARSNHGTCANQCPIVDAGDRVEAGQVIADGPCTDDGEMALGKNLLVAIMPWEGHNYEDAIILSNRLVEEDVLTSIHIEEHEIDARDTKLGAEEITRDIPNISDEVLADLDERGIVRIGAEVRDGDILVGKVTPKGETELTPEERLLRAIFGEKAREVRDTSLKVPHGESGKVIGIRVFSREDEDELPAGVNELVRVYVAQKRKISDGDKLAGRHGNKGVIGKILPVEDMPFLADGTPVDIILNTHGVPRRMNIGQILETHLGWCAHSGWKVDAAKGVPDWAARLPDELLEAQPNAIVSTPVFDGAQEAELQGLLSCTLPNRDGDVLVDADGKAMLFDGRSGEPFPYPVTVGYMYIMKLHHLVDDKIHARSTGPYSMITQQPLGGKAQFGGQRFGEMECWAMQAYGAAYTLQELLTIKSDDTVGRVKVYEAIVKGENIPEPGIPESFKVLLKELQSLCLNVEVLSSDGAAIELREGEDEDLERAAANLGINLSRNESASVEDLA
Sequence of M. tuberculosis RNA polymerase (P9WGZ1 whole entry, looked up): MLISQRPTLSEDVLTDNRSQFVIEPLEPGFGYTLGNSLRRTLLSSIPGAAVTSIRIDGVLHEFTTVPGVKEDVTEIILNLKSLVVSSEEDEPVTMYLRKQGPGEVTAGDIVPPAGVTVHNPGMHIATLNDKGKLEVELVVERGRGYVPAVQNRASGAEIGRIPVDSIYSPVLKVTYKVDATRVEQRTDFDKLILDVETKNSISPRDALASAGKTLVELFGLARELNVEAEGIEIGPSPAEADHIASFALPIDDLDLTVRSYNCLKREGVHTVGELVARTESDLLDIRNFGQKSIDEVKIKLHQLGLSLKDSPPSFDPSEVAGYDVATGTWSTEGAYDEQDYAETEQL

SMILES: CO[C@H]1/C=C/O[C@@]2(C)Oc3c(C)c(O)c4c(O)c(c(/C=N/N5CCN(C)CC5)c(O)c4c3C2=O)NC(=O)/C(C)=C\C=C\[C@H](C)[C@H](O)[C@@H](C)[C@@H](O)[C@@H](C)[C@H](OC(C)=O)[C@@H]1C [rifampicin]
- inhibition of transcription: 50-75%
